Data reported in patent publication US20100035756A1, “TRIAZOLOPHYRIDINE DERIVATIVES AS HERBICIDES” (SYNGENTA LIMITED, priority 2006, published 2010).
“And” between values parts separate entries of the source, which are not always exact repeats. Equal entries are not always repeated.

How the values were obtained:
Type in all cases: in vivo
[1] = tested on: Monocotyledonous and dicotyledonous test plants; test: Herbicidal action prior to emergence of the plants (pre-emergence action), Example B1; conditions: preemergence application, 250 g/ha, evaluated after 4 weeks, 100%=total damage, 0%=no damage
Procedure: (§1) Monocotyledonous and dicotyledonous test plants are sown in seed trays in standard soil. Immediately after sowing, the test compounds are applied by spraying in the form of an aqueous suspension (prepared from a wettable powder (Example F3, b) according to WO 97/34485) or in the form of an emulsion (prepared from an emulsifiable concentrate (Example F1, c) according to WO 97/34485) in a concentration of 250 g/ha. The test plants are then grown in a greenhouse under optimum conditions. After a 4-week test period, the test is evaluated (100%=total damage to plant; 0%=no damage to plant; NC not evaluated).

Nasturtium officinale = test: Microscreen (pre-emergence), Example B3; conditions: preemergent application, 250 g/ha, evaluated 8 days later, 100%=total damage
Agrostis tenuis = test: Microscreen (pre-emergence), Example B3; conditions: preemergent application, 250 g/ha, evaluated 8 days later, 100%=total damage
Stellaria media = test: Microscreen (pre-emergence), Example B3; conditions: preemergent application, 250 g/ha, evaluated 8 days later, 100%=total damage
Digitaria sanguinalis = test: Microscreen (pre-emergence), Example B3; conditions: preemergent application, 250 g/ha, evaluated 8 days later, 100%=total damage
Solanum nigrum = test: Microscreen (pre-emergence), Example B3; conditions: preemergent application, 250 g/ha, evaluated 8 days later, 100%=total damage
Amaranthus retroflexus = test: Microscreen (pre-emergence), Example B3; conditions: preemergent application, 250 g/ha, evaluated 8 days later, 100%=total damage
Setaria italica = test: Microscreen (pre-emergence), Example B3; conditions: preemergent application, 250 g/ha, evaluated 8 days later, 100%=total damage
[2] = tested on: Monocotyledonous and dicotyledonous test plants; test: Herbicidal action after emergence of the plants (post-emergence herbicidal action), Example B2; conditions: postemergent application, 125 g/ha, 2- to 3-leaf stage, evaluated after 2-3 weeks, 100%=total damage
Procedure: as §1, with “When the test plants are at the 2- to 3-leaf stage,” for “Immediately after sowing,”, “125” for “250”, “grown on” for “grown”, “2- to 3-week” for “4-week”, “plant).” for “plant; NC not evaluated).”

SMILES	herbicidal damage, ABUTH [1] [%]	herbicidal damage, AMARE [1] [%]	herbicidal damage, BRAPL [1] [%]	herbicidal damage, DIGSA [1] [%]	herbicidal damage, ECHCG [1] [%]	herbicidal damage, SETFA [1] [%]	herbicidal damage, STEME [1] [%]	herbicidal damage, VERPE [1] [%]	herbicidal damage, ABUTH [2] [%]	herbicidal damage, AMARE [2]	herbicidal damage, CHEAL [2] [%]	herbicidal damage, DIGSA [2] [%]	herbicidal damage, SETFA [2] [%]	herbicidal damage, SINAR [2]	herbicidal damage, VERPE [2]	herbicidal damage, XANST [2]	other results
Cc1nnc2c(C(=O)C3=C(O)C4(CCC3=O)CC4)ccc(C(F)(F)F)n12 [41.2]	80	100	80	100	100	80	70	90									herbicidal damage, Nasturtium (Nasturtium officinale): 100%; herbicidal damage, Agrostis (Agrostis tenuis): 100%; herbicidal damage, Stellaria (Stellaria media): 90%; herbicidal damage, Digitaria (Digitaria sanguinalis): 100%; herbicidal damage, Solanum (Solanum nigrum): 100%; herbicidal damage, Amaranthus (Amaranthus retroflexus): 100%; herbicidal damage, Setaria (Setaria italica): 80%
CCSc1nnc2c(C(=O)C3=C(O)C4CCC(C4)C3=O)ccc(C(F)(F)F)n12 (centres unmarked) [Compound 1.212]	70	100	60	70	50	80	70	0	80	80%	80	80	80	80%	80%	80%	
O=C1CCCC(O)=C1C(=O)c1ccc(C(F)(F)F)n2c(Br)nnc12 [Compound 3.3]	100	100	0	0	0	0	70	30	70	70%	80	70	30	70%	80%	80%	
CCc1nnc2c(C(=O)C3=C(O)CCCC3=O)ccc(C(F)(F)F)n12 [Compound 3.5]	100	70	80	90	70	90	60	30	90	100%	90	80	70	80%	90%	80%	
CC(C)c1nnc2c(C(=O)C3=C(O)CCCC3=O)ccc(C(F)(F)F)n12 [Compound 3.6]	90	70	60	90	90	50	20	20	80	70%	90	70	70	90%	100%	90%	
O=C1CCCC(O)=C1C(=O)c1ccc(C(F)(F)F)n2c(C3CC3)nnc12 [Compound 3.7]	30	30	30	30	10	10	20	10	80	90%	70	80	80	90%	80%	80%	
Cc1nnc2c(C(=O)C3=C(O)CC(C)CC3=O)ccc(C(F)(F)F)n12 (centres unmarked) [Compound 4.3]	70	100	100	100	100	40	80	100									herbicidal damage, Nasturtium (Nasturtium officinale): 100%; herbicidal damage, Agrostis (Agrostis tenuis): 100%; herbicidal damage, Stellaria (Stellaria media): 80%; herbicidal damage, Digitaria (Digitaria sanguinalis): 100%; herbicidal damage, Solanum (Solanum nigrum): 100%; herbicidal damage, Amaranthus (Amaranthus retroflexus): 100%; herbicidal damage, Setaria (Setaria italica): 60%
CC(C)c1nnc2c(C(=O)C3=C(O)C(C)(C)C(=O)C(C)(C)C3=O)ccc(C(F)(F)F)n12 [Compound 5.4]	100	100	100	60	40	30	100	100	80	90% and 70%	80		50	70% and 80%	80% and 90%	70% and 90%	
COCc1nnc2c(C(=O)C3=C(O)C(C)(C)C(=O)C(C)(C)C3=O)ccc(C(F)(F)F)n12 [Compound 5.5]		60	20	10	60	20	70	90	80	90%	80	10	50	70%	80%	70%	
CC1(C)C(=O)C(C(=O)c2ccc(C(F)(F)F)n3c(-c4ccc(Cl)cc4)nnc23)=C(O)C(C)(C)C1=O [Compound 5.10]	100	100	20	40	20	0	30		80	80%	70	20	30	80%	100%	80%	
Cc1nnc2c(C(=O)c3cnn(C)c3O)ccc(C(F)(F)F)n12 [Compound 6.3]	10	70		30	30	0	40	80	60	90%	70	80	60	80%	80%	80%	
